Data reported in ChEMBL document CHEMBL4831556, “Discovery of a Novel Potent and Selective Calcium Release-Activated Calcium Channel Inhibitor: 2,6-Difluoro-N-(2'-methyl-3'-(4-methyl-5-oxo-4,5-dihydro-1,3,4-oxadiazol-2-yl)-[1,1'-biphenyl]-4-yl)benzamide. Structure-Activity Relationship and Preclinical Characterization” (J Med Chem, 2021).

Experiments:
[1] = Metabolic stability in mouse liver microsomes preincubated for 5 mins followed by NADPH addition and measured upto 30 mins by LC-MS/MS analysis; type: ADME, Microsome; conditions: 0.5 h, time <=35 min
[2] = AUClast in Lewis rat at 1 mg/kg, iv measured upto 24 hrs by LC-MS/MS analysis; type: ADME, organism-based; set-up: route intravenous, dose 1 mg/kg, time <=24; conditions: in vivo
[3] = Cmax in Lewis rat at 10 mg/kg, po measured upto 24 hrs by LC-MS/MS analysis; type: ADME, organism-based; set-up: route oral, dose 10 mg/kg, time <=24; conditions: in vivo
[4] = Tmax in Lewis rat at 1 mg/kg, iv measured upto 24 hrs by LC-MS/MS analysis; type: ADME, organism-based; conditions: in vivo
[5] = Tmax in Lewis rat at 10 mg/kg, po measured upto 24 hrs by LC-MS/MS analysis; type: ADME, organism-based; conditions: in vivo
[6] = Half life in Lewis rat at 1 mg/kg, iv measured upto 24 hrs by LC-MS/MS analysis; type: ADME, organism-based; conditions: in vivo
[7] = Clearance in Lewis rat at 1 mg/kg, iv measured upto 24 hrs by LC-MS/MS analysis; type: ADME, organism-based; conditions: in vivo
[8] = Volume of distribution at steady state in Lewis rat at 1 mg/kg, iv measured upto 24 hrs by LC-MS/MS analysis; type: ADME, organism-based; conditions: in vivo, read-out: Vdss
[9] = Oral bioavailability in Lewis rat at 10 mg/kg measured upto 24 hrs by LC-MS/MS analysis; type: ADME, organism-based; conditions: in vivo
[10] = AUClast in BALB/c mouse at 1 mg/kg, iv measured upto 24 hrs by LC-MS/MS analysis; type: ADME, organism-based; set-up: route intravenous, dose 1 mg/kg, time <=24; conditions: in vivo
[11] = AUClast in BALB/c mouse at 10 mg/kg, po measured upto 24 hrs by LC-MS/MS analysis; type: ADME, organism-based; set-up: route oral, dose 10 mg/kg, time <=24; conditions: in vivo
[12] = Cmax in BALB/c mouse at 1 mg/kg, iv measured upto 24 hrs by LC-MS/MS analysis; type: ADME, organism-based; set-up: route intravenous, dose 1 mg/kg, time <=24; conditions: in vivo
[13] = Cmax in BALB/c mouse at 10 mg/kg, po measured upto 24 hrs by LC-MS/MS analysis; type: ADME, organism-based; set-up: route oral, dose 10 mg/kg, time <=24; conditions: in vivo
[14] = Tmax in BALB/c mouse at 10 mg/kg, po measured upto 24 hrs by LC-MS/MS analysis; type: ADME, organism-based; conditions: in vivo
[15] = Half life in BALB/c mouse at 1 mg/kg, iv measured upto 24 hrs by LC-MS/MS analysis; type: ADME, organism-based; conditions: in vivo
[16] = Half life in BALB/c mouse at 10 mg/kg, po measured upto 24 hrs by LC-MS/MS analysis; type: ADME, organism-based; conditions: in vivo
[17] = Clearance in BALB/c mouse at 1 mg/kg, iv measured upto 24 hrs by LC-MS/MS analysis; type: ADME, organism-based; conditions: in vivo
[18] = Oral bioavailability in BALB/c mouse at 10 mg/kg measured upto 24 hrs by LC-MS/MS analysis; type: ADME, organism-based; conditions: in vivo
[19] = Metabolic stability in rat liver microsomes preincubated for 5 mins followed by NADPH addition and measured upto 30 mins by LC-MS/MS analysis; type: ADME, Microsome; conditions: 0.5 h, time <=35 min
[20] = Metabolic stability in dog liver microsomes preincubated for 5 mins followed by NADPH addition and measured upto 30 mins by LC-MS/MS analysis; type: ADME, Canis lupus familiaris, Microsome; conditions: 0.5 h, time <=35 min
[21] = Metabolic stability in monkey liver microsomes preincubated for 5 mins followed by NADPH addition and measured upto 30 mins by LC-MS/MS analysis; type: ADME, Macaca mulatta, Microsome; conditions: rhesus monkey, 0.5 h, time <=35 min
[22] = Metabolic stability in human liver microsomes preincubated for 5 mins followed by NADPH addition and measured upto 30 mins by LC-MS/MS analysis; type: ADME, Microsome; conditions: 0.5 h, time <=35 min
[23] = Apparent permeability across apical to basolateral side in human Caco-2 cells at 5 uM measured upto 120 mins in orbital shaker; type: ADME, cell-based
[24] = Apparent permeability across basolateral to apical side in human Caco-2 cells at 5 uM measured upto 120 mins in orbital shaker; type: ADME, cell-based
[25] = Plasma protein binding; type: ADME, cell-free; conditions: read-out: PPB
Cytochrome P450 2A6 = biological target: T1, Cytochrome P450 2A6 (Homo sapiens, UniProt P11509); test: Inhibition of CYP2A6 in human liver microsomes at 10 uM by LC-MS/MS analysis; type: ADME
T1 sequence (P11509 whole entry): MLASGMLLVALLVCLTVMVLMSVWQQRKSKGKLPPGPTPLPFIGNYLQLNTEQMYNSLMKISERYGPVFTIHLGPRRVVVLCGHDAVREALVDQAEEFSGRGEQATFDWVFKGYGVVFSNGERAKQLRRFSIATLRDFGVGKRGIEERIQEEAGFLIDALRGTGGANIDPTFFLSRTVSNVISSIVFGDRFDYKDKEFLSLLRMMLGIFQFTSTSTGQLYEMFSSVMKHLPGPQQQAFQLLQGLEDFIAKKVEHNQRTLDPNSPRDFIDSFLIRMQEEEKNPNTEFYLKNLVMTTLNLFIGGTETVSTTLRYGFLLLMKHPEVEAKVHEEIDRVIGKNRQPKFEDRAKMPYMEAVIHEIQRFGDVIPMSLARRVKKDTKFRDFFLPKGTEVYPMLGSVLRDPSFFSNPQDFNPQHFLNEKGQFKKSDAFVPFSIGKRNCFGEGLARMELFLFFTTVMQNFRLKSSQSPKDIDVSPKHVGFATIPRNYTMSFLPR

Cytochrome P450 2B6 = biological target: T2, Cytochrome P450 2B6 (Homo sapiens, UniProt P20813); test: Inhibition of CYP2B6 in human liver microsomes at 10 uM by LC-MS/MS analysis; type: ADME
T2 sequence (P20813 whole entry): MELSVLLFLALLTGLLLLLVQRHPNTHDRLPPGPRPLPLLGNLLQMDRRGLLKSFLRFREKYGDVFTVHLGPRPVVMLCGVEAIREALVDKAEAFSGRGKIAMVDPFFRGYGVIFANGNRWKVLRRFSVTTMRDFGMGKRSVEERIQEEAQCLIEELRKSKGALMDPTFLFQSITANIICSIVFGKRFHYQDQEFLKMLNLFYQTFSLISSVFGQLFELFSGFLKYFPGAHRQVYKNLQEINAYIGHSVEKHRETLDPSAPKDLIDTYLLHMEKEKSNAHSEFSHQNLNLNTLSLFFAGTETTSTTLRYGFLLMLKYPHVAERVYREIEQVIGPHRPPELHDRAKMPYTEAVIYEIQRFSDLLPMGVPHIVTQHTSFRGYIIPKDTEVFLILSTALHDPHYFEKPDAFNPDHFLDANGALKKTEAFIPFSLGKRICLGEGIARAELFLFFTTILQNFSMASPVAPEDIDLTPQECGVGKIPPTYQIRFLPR

Cytochrome P450 2C9 = Cytochrome P450 2C9 (Homo sapiens, UniProt P11712); test: Inhibition of CYP2C9 in human liver microsomes at 10 uM by LC-MS/MS analysis; type: ADME
Chain of Cytochrome P450 2C9 (P11712 whole entry): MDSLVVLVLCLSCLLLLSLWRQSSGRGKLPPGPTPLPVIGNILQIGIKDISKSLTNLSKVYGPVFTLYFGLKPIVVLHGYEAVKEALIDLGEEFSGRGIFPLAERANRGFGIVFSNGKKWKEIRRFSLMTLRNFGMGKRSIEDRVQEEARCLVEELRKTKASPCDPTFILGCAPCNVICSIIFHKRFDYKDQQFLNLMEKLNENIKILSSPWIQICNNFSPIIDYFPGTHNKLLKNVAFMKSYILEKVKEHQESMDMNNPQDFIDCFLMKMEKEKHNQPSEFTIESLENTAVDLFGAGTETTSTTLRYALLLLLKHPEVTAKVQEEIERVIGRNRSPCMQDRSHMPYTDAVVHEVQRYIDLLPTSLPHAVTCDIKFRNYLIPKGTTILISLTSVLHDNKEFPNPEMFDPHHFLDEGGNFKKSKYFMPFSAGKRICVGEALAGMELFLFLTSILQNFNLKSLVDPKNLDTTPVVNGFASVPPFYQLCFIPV

Cytochrome P450 2C19 = Cytochrome P450 2C19 (Homo sapiens, UniProt P33261); test: Inhibition of CYP2C19 in human liver microsomes at 10 uM by LC-MS/MS analysis; type: ADME
Chain of Cytochrome P450 2C19 (P33261 whole entry): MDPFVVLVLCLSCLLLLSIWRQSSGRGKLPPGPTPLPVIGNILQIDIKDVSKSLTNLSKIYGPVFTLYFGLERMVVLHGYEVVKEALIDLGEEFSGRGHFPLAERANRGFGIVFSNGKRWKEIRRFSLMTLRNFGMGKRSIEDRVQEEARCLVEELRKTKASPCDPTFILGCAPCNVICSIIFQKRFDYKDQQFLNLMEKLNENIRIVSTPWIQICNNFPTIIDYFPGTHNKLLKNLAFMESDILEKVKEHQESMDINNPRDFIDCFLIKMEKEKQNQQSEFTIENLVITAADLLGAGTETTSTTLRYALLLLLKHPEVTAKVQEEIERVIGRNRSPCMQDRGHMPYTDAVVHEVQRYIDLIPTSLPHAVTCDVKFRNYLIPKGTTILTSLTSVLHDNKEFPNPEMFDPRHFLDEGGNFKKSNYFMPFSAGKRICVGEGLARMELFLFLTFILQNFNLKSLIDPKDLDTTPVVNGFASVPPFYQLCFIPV

Cytochrome P450 2D6 = Cytochrome P450 2D6 (Homo sapiens, UniProt P10635); test: Inhibition of CYP2D6 in human liver microsomes at 10 uM by LC-MS/MS analysis; type: ADME
Chain of Cytochrome P450 2D6 (P10635 whole entry): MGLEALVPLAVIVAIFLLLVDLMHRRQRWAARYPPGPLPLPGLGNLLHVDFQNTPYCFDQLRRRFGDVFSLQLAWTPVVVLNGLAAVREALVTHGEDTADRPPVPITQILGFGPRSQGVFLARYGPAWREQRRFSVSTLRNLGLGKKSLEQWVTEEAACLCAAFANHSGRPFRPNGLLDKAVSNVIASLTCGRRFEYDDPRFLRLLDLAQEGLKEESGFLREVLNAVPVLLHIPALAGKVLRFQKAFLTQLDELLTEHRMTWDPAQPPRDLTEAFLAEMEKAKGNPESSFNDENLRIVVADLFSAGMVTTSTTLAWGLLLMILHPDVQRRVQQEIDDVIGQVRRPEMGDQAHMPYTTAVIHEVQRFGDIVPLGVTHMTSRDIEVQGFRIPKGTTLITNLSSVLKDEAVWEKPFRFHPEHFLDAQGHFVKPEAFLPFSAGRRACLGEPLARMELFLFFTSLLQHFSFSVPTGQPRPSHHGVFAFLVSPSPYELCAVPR

Cytochrome P450 2E1 = Cytochrome P450 2E1 (Homo sapiens, UniProt P05181); test: Inhibition of CYP2E1 in human liver microsomes at 10 uM by LC-MS/MS analysis; type: ADME
Chain of Cytochrome P450 2E1 (P05181 whole entry): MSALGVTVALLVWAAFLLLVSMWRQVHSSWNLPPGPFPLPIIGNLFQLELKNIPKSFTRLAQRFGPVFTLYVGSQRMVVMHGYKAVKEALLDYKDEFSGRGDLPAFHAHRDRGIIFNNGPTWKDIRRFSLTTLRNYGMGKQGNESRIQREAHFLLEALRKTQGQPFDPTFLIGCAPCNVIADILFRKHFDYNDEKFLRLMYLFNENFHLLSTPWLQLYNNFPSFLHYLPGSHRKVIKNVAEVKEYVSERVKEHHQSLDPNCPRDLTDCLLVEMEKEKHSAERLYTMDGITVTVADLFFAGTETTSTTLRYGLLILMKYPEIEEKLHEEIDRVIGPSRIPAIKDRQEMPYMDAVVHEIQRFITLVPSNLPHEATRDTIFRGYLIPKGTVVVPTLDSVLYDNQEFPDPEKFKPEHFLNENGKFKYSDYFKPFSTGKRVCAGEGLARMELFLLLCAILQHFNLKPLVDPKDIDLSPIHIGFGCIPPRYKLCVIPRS

Cytochrome P450 3A4 = Cytochrome P450 3A4 (Homo sapiens, UniProt P08684); test: Inhibition of CYP3A4 in human liver microsomes at 10 uM by LC-MS/MS analysis; type: ADME
Chain of Cytochrome P450 3A4 (P08684 whole entry): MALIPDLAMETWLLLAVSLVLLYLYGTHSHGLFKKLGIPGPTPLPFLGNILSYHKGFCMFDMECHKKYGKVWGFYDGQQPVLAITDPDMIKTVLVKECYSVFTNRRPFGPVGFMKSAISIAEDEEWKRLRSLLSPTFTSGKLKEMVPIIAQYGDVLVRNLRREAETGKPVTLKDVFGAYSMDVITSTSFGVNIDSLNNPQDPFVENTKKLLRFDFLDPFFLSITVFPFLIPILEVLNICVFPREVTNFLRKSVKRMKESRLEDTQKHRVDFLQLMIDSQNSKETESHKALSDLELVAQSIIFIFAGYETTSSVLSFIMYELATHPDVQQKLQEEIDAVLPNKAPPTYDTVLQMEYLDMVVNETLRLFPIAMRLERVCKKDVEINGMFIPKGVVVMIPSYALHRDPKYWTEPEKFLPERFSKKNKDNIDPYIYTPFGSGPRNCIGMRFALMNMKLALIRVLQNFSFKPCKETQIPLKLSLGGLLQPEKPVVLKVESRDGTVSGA

SMILES | Stability [1] | AUC(0-t) at 24 h [2] | Cmax [3] | Tmax [4] | Tmax [5] | half-life [6] | clearance [7] | Vd [8] | bioavailability [9] | AUC(0-t) at 24 h [10] | AUC(0-t) at 24 h [11] | Cmax [12] | Cmax [13] | Tmax [14] | half-life [15] | half-life [16] | clearance [17] | bioavailability [18] | Stability [19] | Stability [20] | also measured
Cc1c(-c2ccc(NC(=O)c3c(F)cccc3Cl)cc2)cccc1-c1nn(C)c(=O)o1 | Stable | 28 µM·h | 10 µM | 4.8 min | 2 h | 13 h | 1 mL/min/kg | 1 L/kg | 60% | 4 µM·h | 44 µM·h | 4.3 µM | 4.7 µM | 1 h | 5 h | 6 h | 8 mL/min/kg | 100% | Stable | Stable | Stability [21]: Stable; Stability [22]: Stable; Papp A→B at 2 h, 5 µM [23]: 12.3 ×10⁻⁶ cm/s; Papp B→A at 2 h, 5 µM [24]: 4.5 ×10⁻⁶ cm/s; fraction unbound [25]: 0.01; inhibition (INH) (Cytochrome P450 2A6): Not Active; inhibition (INH) (Cytochrome P450 2B6): Not Active; inhibition (INH) (Cytochrome P450 2C9): Not Active; inhibition (INH) (Cytochrome P450 2C19): Not Active; inhibition (INH) (Cytochrome P450 2D6): Not Active; inhibition (INH) (Cytochrome P450 2E1): Not Active; inhibition (INH) (Cytochrome P450 3A4): Not Active
Cc1c(-c2ccc(NC(=O)c3c(F)cccc3F)cc2)cccc1-c1nn(C)c(=O)o1 | Stable | 29 µM·h | 20 µM | 4.8 min | 8 h | > 15 h | 0.9 mL/min/kg | 1 L/kg | 100% | 7.1 µM·h | 56 µM·h | 4.2 µM | 4 µM | 1 h | 6.4 h | 5.3 h | 5.2 mL/min/kg | 79% | Stable | Stable | Stability [21]: Stable; Stability [22]: Stable; Papp A→B at 2 h, 5 µM [23]: 14.1 ×10⁻⁶ cm/s; Papp B→A at 2 h, 5 µM [24]: 6.2 ×10⁻⁶ cm/s; fraction unbound [25]: 0.01; inhibition (INH) (Cytochrome P450 2A6): Not Active; inhibition (INH) (Cytochrome P450 2B6): Not Active; inhibition (INH) (Cytochrome P450 2C9): Not Active; inhibition (INH) (Cytochrome P450 2C19): Not Active; inhibition (INH) (Cytochrome P450 2D6): Not Active; inhibition (INH) (Cytochrome P450 2E1): Not Active; inhibition (INH) (Cytochrome P450 3A4): Not Active
